In paper PMC4026310 (Drug Design, Development and Therapy, 2014):

Legend:
liver = experiment: In situ liver perfusion; type: in vivo, Sprague Dawley rats; conditions: rat in situ liver perfusion, within 120 minutes
P-gp = conditions: patients receiving quinidine (P-gp inhibitor) treatment; cited from earlier work

| SMILES | Effect of inhibitor on the elimination rate of periplocin in the perfusate (liver) | Patients showing an obvious increase in the blood concentration of digoxin (P-gp) |
| --- | --- | --- |
| CO[C@H]1/C=C/O[C@@]2(C)Oc3c(C)c(O)c4c(O)c(c(/C=N/N5CCN(C)CC5)c(O)c4c3C2=O)NC(=O)/C(C)=C\C=C\[C@H](C)[C@H](O)[C@@H](C)[C@@H](O)[C@@H](C)[C@H](OC(C)=O)[C@@H]1C [rifampicin] | significantly reduced | – |
| C=C[C@H]1C[N@@]2CC[C@H]1C[C@@H]2[C@@H](O)c1ccnc2ccc(OC)cc12 [quinidine] | – | 90% |
